Data: US7749709B2, “SOCS-1 gene methylation in cancer” (The Johns Hopkins University School of Medicine, priority 2001, dated 2010)
“Also recorded” adds a separate entry of the source. Where two headings read alike, the source gives them in different places.

How the values were obtained:
[1] = tested on: patients with AML and myelodysplastic syndrome; conditions: cited from earlier work
SOCS-1 gene expression = test: Semi-quantitative RT-PCR of SOCS-1 expression in MM cell lines; type: cell-based, human; conditions: 1 μM for 96 hr
Protocol: (§1) For gene expression studies, U266 and XG1 cells were incubated in complete culture medium with a final concentration of 1.0 μM 5-azacytidine (Sigma). After 4 days, drug-treated and untreated cells were harvested and subjected to RNA extraction. In order to assess the sensitivity to AG490, cell lines K562, U266 and XG1 were incubated with or without a final concentration of 50 μM AG490 for 4 days prior to analysis. For STAT3 phosphorylation analysis, cell lines U266 and XG1 were initially starved for 16 hr in culture medium supplemented with only 1% FCS and no cytokine. Cells were then washed in cold PBS and resuspended in their appropriate complete medium with or without 50 μM AG490 and samples were harvested for protein analysis after 1 hr and 24 hr.
Total RNA was isolated using a commercially available kit (Qiagen) according to the manufacturer's instructions. Approximately 3 μg RNA per sample were reverse transcribed with SuperScript™ reverse transcriptase (Invitrogen). For PCR, 1 μl of the cDNA preparation was amplified using the following SOCS-1 primers: […]
Reactions were hot-started at 95° C. for 5 min and held at 80° C. before addition of 1.25 U of Taq polymerase (Invitrogen Corp.). […]

[2] = tested on: B cell leukemia cells, in which JAK2 was constitutively activated; conditions: cited from earlier work
STAT1 = test: Western blot analysis of STAT tyrosine phosphorylation in SOCS-1 methylated leukemia cells; type: cell-based, human; conditions: cell line with SOCS-1 methylation, following treatment with AG490
Protocol: (§2) Western blot analysis was performed as described in Example 1. Blots were stained using anti-phospho-STAT1, anti-phospho-STAT3 or anti-phospho-STAT5 antibody (New England Biolabs) to detect tyrosine phosphorylation of STAT protein. After removing the antibody, the blot was analyzed using anti-STAT1, anti-STAT3 or anti-STAT5 antibody, respectively (BD Transduction Laboratories).

STAT3 [3] = test: as above; type: cell-based, human; conditions: cell line with SOCS-1 methylation, following treatment with AG490
Protocol: as §2

STAT5 = test: as above; type: cell-based, human; conditions: cell line with SOCS-1 methylation, following treatment with AG490
Protocol: as §2

normal liver cells = test: Effect of AG490 on normal liver cells; type: cell-based
myeloma cells = conditions: cited from earlier work
[4] = tested on: normal haematopoietic progenitor cells; conditions: at concentrations similar to those used in the present studies; cited from earlier work
ALL = conditions: cited from earlier work
K562 cells = test: Flow cytometric analysis of apoptosis (annexin V binding, PI counterstaining); type: cell-based, human; conditions: 50 μM AG490, 96 hr; no SOCS-1 methylation
Protocol: as §1
(§3) Apoptosis was assessed by annexin V binding and counterstaining with propidium iodide (PI) using a commercially available kit (Pharmingen) according to the manufacturer's instructions. Fluorescence analysis was performed on a BD LSR flow cytometer (Becton Dickinson).

XG1 cells = test: as above; type: cell-based, human; conditions: 50 μM AG490, 96 hr; SOCS-1 hypermethylated
Protocol: as §1, §3

U266 cells = test: as above; type: cell-based, human; conditions: 50 μM AG490, 96 hr; SOCS-1 hypermethylated
Protocol: as §1, §3

STAT3 [5] = conditions: MM cell line XG2; cited from earlier work
STAT3 [6] = test: Western blot analysis of STAT3 phosphorylation in MM cell lines; type: cell-based, human; conditions: 50 μM AG490, 1 hr and 24 hr
Protocol: as §1
Cell lysis and western blot analysis for STAT3 phosphorylation were performed as described in Example 1 (see, also, Yoshikawa et al., supra, 2001).

leukemic Sezary cells = conditions: cited from earlier work
STAT3 [7] = test: Western blot analysis of STAT3 tyrosine phosphorylation in HCC cell lines treated with AG490; type: cell-based, human; conditions: 25 μM AG490 for 3 hr or 24 hr
Protocol: Cells at approximately 70% confluence were harvested and lysed on ice in a buffer containing 20 mM Tris (pH 8.0), 1% NONIDET P-40 detergent, 0.1% SDS, 150 mM NaCl, 50 mM NaF, 1 mM Na3VO4, 10 μg/ml leupeptin, 10 μg/ml aprotinin, 1 μg/ml pepstatin, and 1 mM phenylmethylsulfonyl fluoride. Following incubation for 30 min on ice, the lysates were cleared of debris by centrifugation at 15,000×g for 30 min. Eight hundred μg of protein lysates were incubated with 5 μg anti-JAK2 antibody (Upstate Biotechnology; Waltham Mass.) for 1 hr on ice. Thirty μl protein A+G (Oncogene Research Products; Boston Mass.) was added to the lysates and incubated for 1 hr at 4° C. with rotation.
Immune complexes were recovered by centrifugation, washed 5 times with the lysis buffer, then boiled for 5 min in SDS-PAGE sample buffer. The samples were resolved by SDS-PAGE, and electroblotted onto a nitrocellulose membrane. The blot was blocked with 5% skim milk in PBS for 1 hr at room temperature (RT), then incubated with 1 μg/ml of anti-phosphotyrosine antibody (4G10; Upstate biotechnology) over night at 4° C.
After several washes, a 1:5000 dilution of anti-mouse horseradish peroxidase-conjugated secondary antibody (Amersham Pharmacia Biotech) was added and incubated for 1 hr at RT. After several washes, the immunoreactive bands were visualized by an enhanced chemiluminescence substrate (Amersham Pharmacia Biotech) and exposed to HYPERFILM film (Amersham Pharmacia Biotech). The blot was stripped with a buffer composed of 62.5 mM Tris (pH 6.8), 2% SDS and 100 mM θ-mercaptoethanol at 50° C. for 30 min, washed, blocked with 5% milk in PBS, then re-probed with the anti-JAK2 antibody (Upstate Biotechnology).
To analyze inhibition of STAT3 by AG490, cells were treated with 25 μM AG490 for 3 hr or 24 hr. Eighty μg total protein samples from drug treated and untreated cells were separated by SDS-PAGE, and analyzed by western blot analysis. Anti-phospho-STAT3 antibody (New England Biolabs) was used to detect tyrosine phosphorylation of STAT3 according to the conditions recommended by the manufacturer. […]

[8] = tested on: HCC cells exhibiting methylation silenced SOCS-1 gene expression; test: Colony formation assay with AG490; type: cell-based, human; conditions: 5 μM AG490 for 3 weeks
Protocol: For AG490 treatment, 1×10^4 cells were plated in 100 mm tissue culture dishes, and grown in complete medium in the absence or presence of 5 μM AG490 for 3 weeks. In some experiments, cells were treated with 25 μM AG490 for 3 hr or 24 hr.

KG1a = test: Flow cytometric analysis of apoptosis in AML cell line; type: cell-based, human; conditions: 50 μM AG490, 96 hr; SOCS-1 CpG island methylated
Protocol: (§4) HL60 cells were obtained from the American Type Culture Collection and KG1a cells from the German Collection of Microorganisms and Cell Cultures. Both cell lines were routinely cultured in IMDM (Invitrogen Corp.) with 20% FCS (Gemini Bio-Products). In order to assess the sensitivity to AG490, HL60 and KG1a cells were incubated with or without a final concentration of 50 μM AG490 (Sigma) for 96 hr prior to analysis.
(§5) The percentage of apoptotic cells was determined by annexin V-binding and counterstaining with propidium iodide (PI), and fluorescence analysis was performed as described in Example 2.

HL60 = test: as above; type: cell-based, human; conditions: 50 μM AG490, 96 hr; SOCS-1 not methylated
Protocol: as §4, §5

## Nc1ncn([C@H]2C[C@H](O)[C@@H](CO)O2)c(=O)n1 [5-aza-2′-deoxycytidine]
[1]
  clinical efficacy: clinically effective
SOCS-1 gene expression; U266 cells
  SOCS-1 gene expression: reactivation of SOCS-1 gene expression
SOCS-1 gene expression; XG1 cells
  SOCS-1 gene expression: reactivation of SOCS-1 gene expression

## N#C/C(=C/c1ccc(O)c(O)c1)C(=O)NCc1ccccc1 [AG490]
[2]
  growth of B cell leukemia cells: suppress growth
STAT1
  tyrosine phosphorylation of STAT1: decreased
STAT3 [3]
  tyrosine phosphorylation of STAT3: decreased
STAT5
  tyrosine phosphorylation of STAT5: no change
Normal liver cells
  effect on normal liver cells: no effect
Myeloma cells
  apoptosis induction: induces apoptosis
[4]
  growth of normal haematopoietic progenitor cells: does not suppress the growth
ALL
  effectiveness in the treatment of ALL: effectiveness
K562 cells
  apoptosis induction: only a small effect
XG1 cells
  apoptosis induction: induced apoptosis
U266 cells
  apoptosis induction: induced apoptosis
STAT3 [5]
  STAT3 phosphorylation: inhibition of STAT3 phosphorylation
STAT3 [6]; U266 cells
  STAT3 phosphorylation: inhibited STAT3 phosphorylation
STAT3 [6]; XG1 cells
  STAT3 phosphorylation: only minor effects
Leukemic Sezary cells
  apoptosis induction: induces apoptosis
STAT3 [7]; HuH-1 cells (SOCS-1 inactivated, JAK2 activated)
  STAT3 phosphorylation: time dependent reduction in STAT3 phosphorylation
STAT3 [7]; SNU-387 cells (SOCS-1 inactivated, JAK2 activated)
  STAT3 phosphorylation: time dependent reduction in STAT3 phosphorylation
STAT3 [7]; SOCS-1 expressing SNU-182 cells
  STAT3 phosphorylation: but not in the SOCS-1 expressing SNU-182 cells
[8]
  growth suppression (number of colonies): effectively suppressed the growth
KG1a
  apoptosis induction: induced apoptosis
HL60
  apoptosis induction: no effect; also recorded: only weak induction of apoptosis
